# Source: patent US8993569B2, “Diarylpyridazinone derivatives, preparation thereof, and use thereof for the treatment of humans” (Pierre Fabre Medicament, priority 2010, dated 2015)
# Target: T1, human isoform of the Kv1.5 channels (HEK293 cells, stably transfected) (Homo sapiens, UniProt P22460)
# T1 construct: expressed in transfected cells; host or cells: HEK293
# Test: FLIPR thallium ion flux assay on Kv1.5 potassium channel (FLIPR Potassium Ion Channel Assay Kit)
# Format: cell-based
# Conditions: 10 μM compound, 15 min at 37° C; HEK293-hKv1.5; thallium fluorescence 30 secs after depolarising solution; normalised with 10 μM DPO
# Description: The pharmacological assessment of the compounds on the Kv1.5 potassium channel was performed in a 96-well plate in FLIPR technology by thallium ion measurement.
# The HEK293 cells, stably transfected with the human isoform of the Kv1.5 channels, are seeded 24 h before experimentation in 96-well plates (15 10^6 cells/plate, 200 μl/well) polylysinated in the following culture medium: DMEM, 10% SVF, Penicillin/Streptomycin, G418 as the selection antibiotic.
# The experimentation in FLIPR is performed using the “FLIPR Potassium Ion Channel Assay Kit) as indicated by the manufacturer (Molecular Devices).
# Briefly, the culture medium is replaced by the solution containing the thallium marker for 90 min at 37° C. Following this step, the compounds to be tested are added to a final concentration of 10 μM in the well for 15 min at 37° C. The basic fluorescence is subsequently read for 60 secs. The addition of a depolarising medium (20 mM of potassium and 3 mM of final thallium), opens the potassium channels and induces an increase in the fluorescence of the fluorophore thallium corresponding to an influx of thallium ions through the hKv1.5 channels. The measurement is performed 30 secs after injection of the depolarising solution. Application of 10 μM of DPO (Tocris, Kv1.5 channel blocker) allows normalisation of the fluorescence.
# T1 sequence (P22460 whole entry, canonical isoform): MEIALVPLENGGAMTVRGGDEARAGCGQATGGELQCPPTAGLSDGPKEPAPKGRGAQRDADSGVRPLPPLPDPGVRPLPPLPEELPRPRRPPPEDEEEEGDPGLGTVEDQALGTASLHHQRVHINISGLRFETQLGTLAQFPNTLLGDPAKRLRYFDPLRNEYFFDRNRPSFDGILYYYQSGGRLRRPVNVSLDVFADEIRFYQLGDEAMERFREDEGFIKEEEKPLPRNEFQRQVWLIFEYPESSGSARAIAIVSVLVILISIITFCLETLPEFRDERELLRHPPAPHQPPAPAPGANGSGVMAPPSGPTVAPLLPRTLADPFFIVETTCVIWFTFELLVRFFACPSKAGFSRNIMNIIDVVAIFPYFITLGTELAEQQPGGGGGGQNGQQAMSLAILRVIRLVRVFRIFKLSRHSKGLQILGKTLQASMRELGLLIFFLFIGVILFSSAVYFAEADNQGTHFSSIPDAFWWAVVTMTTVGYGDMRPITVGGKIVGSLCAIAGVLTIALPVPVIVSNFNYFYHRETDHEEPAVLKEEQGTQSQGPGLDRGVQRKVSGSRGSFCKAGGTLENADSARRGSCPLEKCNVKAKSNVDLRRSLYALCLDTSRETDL
row,SMILES,inhibition at 10 µM [%]
1,"CC1=C(C(=O)N2CCC[C@H]2c2ccc(F)cc2)[C@@H](c2ccc(Cl)c(Cl)c2)n2nccc2N1 [BMS394136, reference compound]",99.6
2,"C[C@H](c1ccccc1)n1ncc(-c2ccc(O)cc2)c(-c2ccc(O)cc2)c1=O [Example 3, 4,5-Bis-(4-hydroxy-phenyl)-2-((R)-1-phenyl-ethyl)-2H-pyridazin-3-one]",43.3
3,"CC(c1ccccc1)n1ncc(-c2cccc(C#N)c2)c(-c2cccc(C#N)c2)c1=O (stereo not shown) [Example 5, 3,3′-(6-oxo-1-(1-phenylethyl)-1,6-dihydropyridazine-4,5-diyl) dibenzonitrile]",93.6
4,"COc1ccc(-c2cnn(C(C)c3ccccc3)c(=O)c2-c2ccc(OC)cc2)cc1 (stereo not shown) [Example 6, 4,5-Bis-(4-methoxy-phenyl)-2-(1-phenyl-ethyl)-2H-pyridazin-3-one]",94.2
5,"COc1ccc(-c2c(-c3ccccc3C#N)cnn(C(C)c3ccccc3)c2=O)cc1 (stereo not shown) [Example 9, 2-[5-(4-Methoxy-phenyl)-6-oxo-1-(1-phenyl-ethyl)-1,6-dihydro-pyridazin-4-yl]-benzonitrile]",60.1

# The remaining lines, values ahead:
row,inhibition at 10 µM [%],SMILES
1,100,"CC(c1ccccc1)n1ncc(-c2ccc(O)cc2)c(-c2ccc(O)cc2)c1=O (stereo not shown) [Example 1, 4,5-Bis-(4-hydroxy-phenyl)-2-(1-phenyl-ethyl)-2H-pyridazin-3-one]"
2,100,"C[C@@H](c1ccccc1)n1ncc(-c2ccc(O)cc2)c(-c2ccc(O)cc2)c1=O [Example 2, 4,5-Bis-(4-hydroxy-phenyl)-2-((S)-1-phenyl-ethyl)-2H-pyridazin-3-one]"
3,54.9,"CC(c1ccccc1)n1ncc(-c2ccccc2C#N)c(-c2ccccc2C#N)c1=O (stereo not shown) [Example 4, 2,2′-(6-oxo-1-(1-phenylethyl)-1,6-dihydropyridazine-4,5-diyl)dibenzonitrile]"
4,54.9,"Cc1ccc(S(=O)(=O)Nc2cccc(-c3cnn(C(C)c4ccccc4)c(=O)c3-c3cccc(NS(=O)(=O)c4ccc(C)cc4)c3)c2)cc1 (stereo not shown) [Example 7, N,N′-(3,3′-(6-oxo-1-(1-phenylethyl)-1,6-dihydropyridazine-4,5-diyl)bis(3,1-phenylene))bis(4-methylbenzenesulfonamide)]"
5,88,"COc1ccc(-c2c(-c3cccc(C#N)c3)cnn(C(C)c3ccccc3)c2=O)cc1 (stereo not shown) [Example 8, 3-(5-(4-methoxyphenyl)-6-oxo-1-(1-phenylethyl)-1,6-dihydropyridazin-4-yl)benzonitrile]"
